This is an account of results in ChEMBL document CHEMBL4831528, “Discovery of Novel Pterostilbene-Based Derivatives as Potent and Orally Active NLRP3 Inflammasome Inhibitors with Inflammatory Activity for Colitis” (J Med Chem, 2021).

Data set [1] can be described thus: Toxicity in C57BL/6 mouse assessed as effect on fur at 10 to 20 mg/kg, ig administered for 28 days. Type of data set: organism-based. As to conditions: in vivo, po, 672 h, dose 10-20 mg/kg, time 28 day.
Data set [2] concerns Mus musculus. In words: In vivo inhibition of NLRP3 inflammasome activation in C57BL/6 mouse assessed as reduction in MPO activity at 20 mg/kg, ig administered for 7 days by ELISA. The class given is functional, organism-based. As to conditions: time 7.0 day. For orientation: In an ELISA, binding on a coated surface is turned into a signal by an enzyme label.
In another data set the test system is L02. In words: Cytotoxicity against human L-02 cells incubated for 24 hrs by MTT assay. Type of data set: cell-based. As to conditions: L02, 24 h. On the technique in general: Tetrazolium assays rely on reduction of a dye to a coloured formazan, in cell work by metabolically active cells.
Data set [3] in a line: Toxicity in C57BL/6 mouse assessed as effect on activity at 10 to 20 mg/kg, ig administered for 28 days. As to conditions: in vivo, po, 672 h, dose 10-20 mg/kg, time 28 day. Type of data set: organism-based.
The nature of data set [4]: Toxicity in C57BL/6 mouse assessed as reduction in survival rate at 20 mg/kg, ig administered for 28 days. As to conditions: in vivo, po, 672 h, time 28 day. The class given is organism-based.
For data set [5], the system named is Mus musculus. Description: Protection against DSS-induced acute ulcerative colitis in C57BL/6 mouse assessed as reduction in adhesion of colon at 20 mg/kg, ig administered for 7 days. The note with it: time 7.0 day. Type of data set: functional, organism-based.
The target in data set [6] is NACHT, LRR and PYD domains-containing protein 3 (Mus musculus) (UniProt Q8R4B8). In words: Inhibition of NLRP3 inflammasome activation in LPS-stimulated mouse J774A.1 cells assessed as inhibition of cell pyrolysis at 10 uM incubated for 1 hr followed by ATP addition and measured after 30 mins by Hoechst 33342/propidium iodide staining based high content screening method relative to control. The note with it: J774.A1, time 1.5 hrs.

For data set [7], the target named is NACHT, LRR and PYD domains-containing protein 3 (Mus musculus, UniProt Q8R4B8). Description: Inhibition of NLRP3 inflammasome activation in LPS-stimulated mouse bone marrow-derived macrophages assessed as reduction in IL-1beta secretion preincubated for 30 mins followed by nigericin addition and measured after 30 mins by ELISA. Type of data set: tissue-based, Macrophage.

For data set [8], the system named is Mus musculus. In words: In vivo inhibition of NLRP3 inflammasome activation in C57BL/6 mouse assessed as reduction in MPO activity at 10 mg/kg, ig administered for 7 days by ELISA. Type of data set: functional, organism-based. As to conditions: time 7.0 day.
The subject of data set [9] is Mus musculus. In words: Anti-inflammatory activity in C57BL/6 mouse DSS-induced acute ulcerative colitis assessed as reduction in disease index at 10 to 20 mg/kg, ig administered for 7 days. The class given is functional, organism-based. As to conditions: dose 10-20 mg/kg, time 7.0 day.
Data set [10] addresses NACHT, LRR and PYD domains-containing protein 3 (Mus musculus) (UniProt Q8R4B8). Description: Inhibition of NLRP3 inflammasome activation in LPS-stimulated mouse J774A.1 cells assessed as inhibition of cell pyrolysis at 20 uM incubated for 1 hr followed by ATP addition and measured after 30 mins by Hoechst 33342/propidium iodide staining based high content screening method relative to control. The note with it: J774.A1, time 1.5 hrs.

A short description of data set [11]: Toxicity in C57BL/6 mouse assessed as effect on diet at 10 to 20 mg/kg, ig administered for 28 days. The class given is organism-based. As to conditions: in vivo, po, 672 h, dose 10-20 mg/kg, time 28 day.
A short description of data set [12]: Toxicity in C57BL/6 mouse assessed as effect on spirit at 10 to 20 mg/kg, ig administered for 28 days. Type of data set: organism-based. The note with it: in vivo, po, 672 h, dose 10-20 mg/kg, time 28 day.
For a further data set, the system named is Macrophage. Description: Inhibition of NFkappaB activation in LPS-stimulated mouse bone marrow-derived macrophages assessed as reduction in TNFalpha secretion preincubated for 30 mins followed by nigericin addition and measured after 30 mins by ELISA. The class given is tissue-based. The note with it: time 60.0 min.
Data set [13] can be described thus: Hepatic clearance in human liver microsomes preincubated for 5 mins followed by NADPH addition and measured after 5 to 60 mins by LC-MS/MS analysis. Type of data set: ADME, Microsome. As to conditions: time 5-60 min. A general note: Liver microsomes are a subcellular fraction often used to study metabolism.
The nature of data set [14]: Hepatic clearance in mouse liver microsomes preincubated for 5 mins followed by NADPH addition and measured after 5 to 60 mins by LC-MS/MS analysis. The class given is ADME, Microsome. As to conditions: time 5-60 min.
A short description of data set [15]: Half life in mouse liver microsomes preincubated for 5 mins followed by NADPH addition and measured after 5 to 60 mins by LC-MS/MS analysis. Type of data set: ADME, Microsome. As to conditions: time 5-60 min.
Data set [16] in a line: Intrinsic clearance in mouse liver microsomes preincubated for 5 mins followed by NADPH addition and measured after 5 to 60 mins by LC-MS/MS analysis. The note with it: time 5-60 min, read-out: CLH. Type of data set: ADME, Microsome.
Data set [17] is described as follows: Intrinsic clearance in human liver microsomes preincubated for 5 mins followed by NADPH addition and measured after 5 to 60 mins by LC-MS/MS analysis. Type of data set: ADME, Microsome. As to conditions: time 5-60 min, read-out: CLH.
Data set [18] is described as follows: Half life in human liver microsomes preincubated for 5 mins followed by NADPH addition and measured after 5 to 60 mins by LC-MS/MS analysis. Type of data set: ADME, Microsome.

The source made the active and inactive calls. No cut-off for these calls is given here.

NACHT, LRR and PYD domains-containing protein 3, sequence (Q8R4B8 whole entry, the tested form may be a part): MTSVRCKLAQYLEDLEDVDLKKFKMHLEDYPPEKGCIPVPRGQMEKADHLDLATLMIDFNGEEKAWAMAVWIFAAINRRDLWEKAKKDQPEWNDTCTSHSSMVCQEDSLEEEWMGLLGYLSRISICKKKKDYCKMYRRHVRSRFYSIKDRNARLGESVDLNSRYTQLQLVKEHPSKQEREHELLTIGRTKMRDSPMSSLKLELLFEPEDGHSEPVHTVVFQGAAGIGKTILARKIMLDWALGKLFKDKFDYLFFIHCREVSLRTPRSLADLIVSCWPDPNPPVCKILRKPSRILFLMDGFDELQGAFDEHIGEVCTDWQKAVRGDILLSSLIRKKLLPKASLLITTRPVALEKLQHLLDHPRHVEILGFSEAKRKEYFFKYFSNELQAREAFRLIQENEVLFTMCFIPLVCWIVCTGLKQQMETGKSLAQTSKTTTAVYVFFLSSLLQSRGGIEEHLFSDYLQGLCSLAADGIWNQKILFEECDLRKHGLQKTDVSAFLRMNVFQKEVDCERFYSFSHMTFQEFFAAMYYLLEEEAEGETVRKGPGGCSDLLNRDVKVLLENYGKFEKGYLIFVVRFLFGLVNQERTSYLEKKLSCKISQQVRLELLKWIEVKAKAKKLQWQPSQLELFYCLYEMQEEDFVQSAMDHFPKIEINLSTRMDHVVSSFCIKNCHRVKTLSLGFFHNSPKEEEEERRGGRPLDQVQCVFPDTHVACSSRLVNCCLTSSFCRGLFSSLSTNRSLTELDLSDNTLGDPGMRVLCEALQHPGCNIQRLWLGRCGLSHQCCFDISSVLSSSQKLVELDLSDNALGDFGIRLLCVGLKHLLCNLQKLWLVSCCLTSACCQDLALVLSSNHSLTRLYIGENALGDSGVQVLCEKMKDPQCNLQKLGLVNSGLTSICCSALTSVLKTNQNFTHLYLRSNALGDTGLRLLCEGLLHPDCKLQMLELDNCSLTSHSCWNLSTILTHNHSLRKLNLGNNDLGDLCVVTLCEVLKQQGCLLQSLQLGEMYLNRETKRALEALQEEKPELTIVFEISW
NACHT, LRR and PYD domains-containing protein 3 (Mus musculus), sequence (Q8R4B8 whole entry, the tested form may be a part): as above

By inhibition is commonly meant the drop in the measured response relative to a control, in per cent. In general, IC50 refers to the midpoint of a concentration-inhibition curve. As to `COc1cc(/C=C/c2ccc(N)cc2)c(/C=C/[N+](=O)[O-])c(OC)c1`, the Activity entry in data set [1], in [3], in data set [4], in data set [11] and in [12] was “Toxic” each time. Moreover, the inhibition entry in the data set on Mus musculus [2] was “inactive”. The IC50 in the data set with L02 is 85.1 µM; in [7], 1.37 µM. In addition, the outcome with Mus musculus [5] and in the data set with Mus musculus [9] was Active. Further, the figures for the inhibition in data set [6] and in data set [10] were 54.7% and 75.3%, respectively. For the same compound, the inhibition entry with Mus musculus [8] was “Active”.
Regarding `COc1cc(/C=C/c2ccc(O)cc2)cc(OC)c1` [PTEROSTILBENE], the IC50 was above 100 µM in the data set with L02 and above 10 µM in data set [7]. For the same compound, the inhibition result with Macrophage is “Active”. In addition, the inhibition in data set [10] is 21.2%.
The half-life is how long it takes for the measured level to halve. Take `COc1ccc2c(c1)[C@]13CCCC[C@@H]1[C@H](C2)N(C)CC3` [DEXTROMETHORPHAN]: the CLhep predicted in data set [13] was 14.8 mL/min/kg; in data set [14], 70.6 mL/min/kg. Besides, the half-life in data set [15] turned out to be 16.6 min; in [18] it was 31.2 min. Further, the microsomal CLint in data set [16] was 83.3 µL/min/mg; in data set [17], 44.5 µL/min/mg.
Take `COc1cc(/C=C/c2ccc(OCC(=O)NCc3ccc(Br)cc3)cc2)c(/C=C/[N+](=O)[O-])c(OC)c1`: the IC50 is above 100 µM with L02 and 9.68 µM in data set [7]. Also, the figures for the inhibition in data set [6] and in data set [10] were 24% and 34.9%, respectively.
For `COc1cc(/C=C/c2ccc(OCC(=O)NCc3ccccc3)cc2)c(-c2cnn[nH]2)c(OC)c1`, the results for the IC50 (in the data set on L02; in [7]) were above 100 µM and above 10 µM, respectively. Moreover, the inhibition in [6] turned out to be 19.4%; in data set [10] it was 31.6%.
